Our source for the IC50 values is patent US12168012B2, “NLRP3 inflammasome inhibitors” (Novartis AG, priority 2018, dated 2024).

As a reminder, the IC50 is the concentration needed to halve the response being measured.

Assay [1] relates to NLRP3 inflammasome. The assay can be described thus: IL-1β secretion assay. In kind it is cell-based. To be noted: Homo sapiens, THP-1, 3 h, PMA-differentiated THP-1 cells, 15 μM nigericin, HTRF. The procedure: 10 μL supernatant was removed, and IL-1p levels were monitored using an HTRF assay (CisBio, #62IL1PEC) according to manufacturers' instructions. Viability and pyroptosis was monitored with the addition of PrestoBlue cell viability reagent (Life Technologies, #A13261) directly to the cell culture plate.
IC50 values were calculated from the plot of percentage of inhibition versus the inhibitor concentration by a logistics fit according to: y=A2+(A1−A2)/(1+(x/IC50)^p) where y is the %-inhibition at the inhibitor concentration, x. A1 is the lowest inhibition value, i.e. 0%, and A2 the maximum inhibition value, i.e. 100%. The exponent, p, is the Hill coefficient. The curve fitting was conducted with an internally developed software suite.
NLRP3-dependent IL-1β secretion was stimulated in PMA-differentiated THP-1 cells by the addition of nigericin, and cytokines were measured in the […] after 3 hours. As discussed above, activation of the NLRP3 inflammasome requires both an NF-kB-dependent priming step and the addition of a NLRP3 activator.

Assay [2] relates to NF-kB-dependent TNF-α secretion. Briefly: TNF-α secretion assay (counterscreen). In kind it is cell-based. To be noted: Homo sapiens; THP-1 cells, Pam3CSK4-stimulated, 3 hours, HTRF. As to the method: Monocytic THP-1 cells were maintained according to providers' instructions in RPMI media as described above. Undifferentiated cells were plated at 50,000 cells per well in a 384-well flat-bottom cell culture plates (Greiner, #781986), and allowed to rest overnight. Experimental compounds were prepared and added as described above. TNF-α secretion was triggered by the addition of either 1 μg/mL LPS (Sigma, #L4391) or 100 ng/mL Pam3CSK4 (Invivogen, #tlrl-pms) depending on the experiment, and cells were incubated for 3 hours. 10 μL supernatant was removed, and TNF-α levels were monitored using an HTRF assay (CisBio, #62TNFPEC) according to manufacturers' instructions. Viability was monitored as described above.
IC50 values were calculated from the plot of percentage of inhibition versus the inhibitor concentration by a logistics fit according to: y=A2+(A1−A2)/(1+(x/IC50)^p) where y is the %-inhibition at the inhibitor concentration, x. A1 is the lowest inhibition value, i.e. 0%, and A2 the maximum inhibition value, i.e. 100%. The exponent, p, is the Hill coefficient. The curve fitting was conducted with an internally developed software suite. […]
On the technique in general: Counterscreens check selectivity or assay interference.

As to `CC(C)c1nn(CC(=O)N[C@H]2CCOC2)c(=O)c2cc3sc(Cl)cc3n12` [Ex 99, (S)-2-(2-Chloro-5-isopropyl-8-oxothieno[2′,3′:4,5]pyrrolo[1,2-d][1,2,4]triazin-7(8H)-yl)-N-(tetrahydrofuran-3-yl)acetamide], the values for the IC50 in assay [1] and in assay [2] were 537 nM and more than 100000 nM, respectively.

As for `Cc1cc2c(cc3c(=O)n(CC(=O)N[C@@H]4CCCN(C)C4)nc(C(C)C)n32)s1` [Ex 40, (R)-2-(5-Isopropyl-2-methyl-8-oxothieno[2′,3′:4,5]pyrrolo[1,2-d][1,2,4]triazin-7(8H)-yl)-N-(1-methylpiperidin-3-yl)acetamide], the results for the IC50 in assay [1] and in assay [2] were 56.3 nM and more than 100000 nM, respectively.

Consider `CC(C)c1nn(CC(=O)N[C@H]2CC[C@@H](C(=O)O)CC2)c(=O)c2cc3sc(Cl)cc3n12` [Ex 54, (1s,4s)-4-(2-(2-Chloro-5-isopropyl-8-oxothieno[2′,3′:4,5]pyrrolo[1,2-d][1,2,4]triazin-7(8H)-yl)acetamido)cyclohexane-1-carboxylic acid], for which the concentration for half-maximal inhibition (IC50) was 562 nM in assay [1] and more than 100000 nM in assay [2].

For the molecule `CC(C)c1nn(CC(=O)N[C@@H]2CCCN(CC3(O)CCC3)C2)c(=O)c2cc3sc(Cl)cc3n12` [Ex 131, (R)-2-(2-Chloro-5-isopropyl-8-oxothieno[2′,3′:4,5]pyrrolo[1,2-d][1,2,4]triazin-7(8H)-yl)-N-(1-((1-hydroxycyclobutyl)methyl)piperidin-3-yl)acetamide], the IC50 in assay [1] is 17.9 nM; in assay [2], more than 33000 nM.

As for `Cc1nc2c(cc3c(=O)n(CC(=O)NC4CC4)nc(C(C)C)n32)s1` [Ex 96, N-Cyclopropyl-2-(5-isopropyl-2-methyl-8-oxothiazolo[5′,4′:4,5]pyrrolo[1,2-d][1,2,4]triazin-7(8H)-yl)acetamide], the half-maximal inhibitory concentration (IC50) is 1040 nM in assay [1] and more than 33000 nM in assay [2].

With `CC(C)c1nn(CC(=O)NC23CC4CC(CC(O)(C4)C2)C3)c(=O)c2cc3sc(Cl)cc3n12` [Ex 114, 2-(2-Chloro-5-isopropyl-8-oxothieno[2′,3′:4,5]pyrrolo[1,2-d][1,2,4]triazin-7(8H)-yl)-N-((1S,3R,5S)-3-hydroxyadamantan-1-yl)acetamide], the 50% inhibitory concentration (IC50) in assay [1] was 298 nM; in assay [2] it was more than 11000 nM.

`CC(C)c1nn(CC(=O)Nc2ccc(F)cc2F)c(=O)c2cc3sc(Cl)cc3n12` [Ex 58, 2-(2-Chloro-5-isopropyl-8-oxothieno[2′,3′:4,5]pyrrolo[1,2-d][1,2,4]triazin-7(8H)-yl)-N-(2,4-difluorophenyl)acetamide]: the half-maximal inhibitory concentration (IC50) was 176 nM in assay [1] and more than 100000 nM in assay [2].

For `CC(C)c1nn(CC(=O)N[C@@H]2CCC(=O)NC2)c(=O)c2cc3scnc3n12` [Ex 46, (R)-2-(5-Isopropyl-8-oxothiazolo[5′,4′:4,5]pyrrolo[1,2-d][1,2,4]triazin-7(8H)-yl)-N-(6-oxopiperidin-3-yl)acetamide], the half-inhibitory concentration (IC50) is 50.8 nM in assay [1] and more than 100000 nM in assay [2].

Turning to `CC(C)c1nn(CC(=O)N[C@@H]2CCC[C@@H](O)C2)c(=O)c2cc3sc(Cl)cc3n12` [Ex 21, 2-(2-Chloro-5-isopropyl-8-oxothieno[2′,3′:4,5]pyrrolo[1,2-d][1,2,4]triazin-7(8H)-yl)-N-((1R,3R)-3-hydroxycyclohexyl)acetamide], the IC50 in assay [1] is 32.5 nM; in assay [2], more than 100000 nM.

For the molecule `CC(C)c1nn(CC(=O)N[C@@H]2CCCOC2)c(=O)c2cc3sc(Cl)cc3n12` [Ex 59, (R)-2-(2-Chloro-5-isopropyl-8-oxothieno[2′,3′:4,5]pyrrolo[1,2-d][1,2,4]triazin-7(8H)-yl)-N-(tetrahydro-2H-pyran-3-yl)acetamide], the IC50 in assay [1] was 201 nM; in assay [2], more than 100000 nM.

For the molecule `CC(C)c1nn(CC(=O)N[C@@H]2CCOC2)c(=O)c2cc3sc(Cl)cc3n12` [Ex 100, (R)-2-(2-Chloro-5-isopropyl-8-oxothieno[2′,3′:4,5]pyrrolo[1,2-d][1,2,4]triazin-7(8H)-yl)-N-(tetrahydrofuran-3-yl)acetamide], the 50% inhibitory concentration (IC50) in assay [1] was 182 nM; in assay [2], more than 100000 nM.

For the molecule `CN1CCC[C@@H](NC(=O)Cn2nc(C3CC3)n3c(cc4sc(Cl)cc43)c2=O)C1` [Ex 37, (R)-2-(2-Chloro-5-cyclopropyl-8-oxothieno[2′,3′:4,5]pyrrolo[1,2-d][1,2,4]triazin-7(8H)-yl)-N-(1-methylpiperidin-3-yl)acetamide], the values for the half-inhibitory concentration (IC50) in assay [1] and in assay [2] were 101 nM and more than 100000 nM, respectively.

On to `CC(C)c1nn(CC(=O)N[C@H]2C[C@@](C)(O)C2)c(=O)c2cc3sc(Cl)cc3n12` [Ex 72, 2-(2-Chloro-5-isopropyl-8-oxothieno[2′,3′:4,5]pyrrolo[1,2-d][1,2,4]triazin-7(8H)-yl)-N-((1s,3s)-3-hydroxy-3-methylcyclobutyl)acetamide], for which the figures for the half-maximal inhibitory concentration (IC50) in assay [1] and in assay [2] were 0.4 nM and more than 100000 nM, respectively.

As for `CC(C)c1nn(CC(=O)NCCO)c(=O)c2cc3sc(Cl)cc3n12` [Ex 68, 2-(2-Chloro-5-isopropyl-8-oxothieno[2′,3′:4,5]pyrrolo[1,2-d][1,2,4]triazin-7(8H)-yl)-N-(2-hydroxyethyl)acetamide], the half-maximal inhibitory concentration (IC50) was 45.2 nM in assay [1] and more than 100000 nM in assay [2].

Turning to `Cc1cc2c(cc3c(=O)n(CC(=O)Nc4cccnc4)nc(C(C)C)n32)s1` [Ex 7, 2-(5-Isopropyl-2-methyl-8-oxothieno[2′,3′:4,5]pyrrolo[1,2-d][1,2,4]triazin-7(8H)-yl)-N-(pyridin-3-yl)acetamide], the IC50 is 254 nM in assay [1] and more than 100000 nM in assay [2].

For the molecule `CC(C)c1nn(CC(=O)NC2CC3(COC3)C2)c(=O)c2cc3sc(Cl)cc3n12` [Ex 24, 2-(2-Chloro-5-isopropyl-8-oxothieno[2′,3′:4,5]pyrrolo[1,2-d][1,2,4]triazin-7(8H)-yl)-N-(2-oxaspiro[3.3]heptan-6-yl)acetamide], the IC50 in assay [1] is 39.5 nM; in assay [2] it was more than 100000 nM.

As for `CC(C)(O)c1nn(CC(=O)N[C@@H]2CCCN(CC(F)(F)F)C2)c(=O)c2cc3sc(Cl)cc3n12` [Ex 82, (R)-2-(2-Chloro-5-(2-hydroxypropan-2-yl)-8-oxothieno[2′,3′:4,5]pyrrolo[1,2-d][1,2,4]triazin-7(8H)-yl)-N-(1-(2,2,2-trifluoroethyl)piperidin-3-yl)acetamide], the values for the IC50 in assay [1] and in assay [2] were 42.2 nM and more than 100000 nM, respectively.

As for `CC(C)c1nn(CC(=O)NC23CCC(O)(CC2)CC3)c(=O)c2cc3sc(Cl)cc3n12` [Ex 76, 2-(2-Chloro-5-isopropyl-8-oxothieno[2′,3′:4,5]pyrrolo[1,2-d][1,2,4]triazin-7(8H)-yl)-N-(4-hydroxybicyclo[2.2.2]octan-1-yl)acetamide], the IC50 in assay [1] was 45.1 nM; in assay [2], more than 100000 nM.

`Cc1nc2c(cc3c(=O)n(CC(=O)N[C@@H]4CCCNC4)nc(C(C)C)n32)s1` [Ex 50, (R)-2-(5-Isopropyl-2-methyl-8-oxothiazolo[5′,4′:4,5]pyrrolo[1,2-d][1,2,4]triazin-7(8H)-yl)-N-(piperidin-3-yl)acetamide]: the IC50 in assay [1] was 108 nM; in assay [2] it was more than 100000 nM.

For `CC(C)c1nn(CC(=O)NC23CC(N)(C2)C3)c(=O)c2cc3sc(Cl)cc3n12` [Ex 115, N-(3-Aminobicyclo[1.1.1]pentan-1-yl)-2-(2-chloro-5-isopropyl-8-oxothieno[2′,3′:4,5]pyrrolo[1,2-d][1,2,4]triazin-7(8H)-yl)acetamide], the half-maximal inhibitory concentration (IC50) in assay [1] is 172 nM; in assay [2], more than 100000 nM.

`CC(C)c1nn(CC(=O)N[C@@H]2CCCNC2)c(=O)c2cc3scnc3n12` [Ex 88, (R)-2-(5-Isopropyl-8-oxothiazolo[5′,4′:4,5]pyrrolo[1,2-d][1,2,4]triazin-7(8H)-yl)-N-(piperidin-3-yl)acetamide]: the IC50 in assay [1] is 27.5 nM; in assay [2] it was more than 100000 nM.

On to `CC(C)c1nn(CC(=O)N[C@@H]2CCCN(C)C2)c(=O)c2cc3sc(F)cc3n12` [Ex 32, (R)-2-(2-Fluoro-5-isopropyl-8-oxothieno[2′,3′:4,5]pyrrolo[1,2-d][1,2,4]triazin-7(8H)-yl)-N-(1-methylpiperidin-3-yl)acetamide], for which the results for the IC50 in assay [1] and in assay [2] were 7.6 nM and more than 100000 nM, respectively.

With `CC(C)c1nn(CC(=O)NC2CC2)c(=O)c2cc3scnc3n12` [Ex 51, N-Cyclopropyl-2-(5-isopropyl-8-oxothiazolo[5′,4′:4,5]pyrrolo[1,2-d][1,2,4]triazin-7(8H)-yl)acetamide], the half-inhibitory concentration (IC50) in assay [1] is 138 nM; in assay [2], more than 100000 nM.

Take `CC(C)(O)c1nn(CC(=O)Nc2ccncn2)c(=O)c2cc3sc(Cl)cc3n12` [Ex 9, 2-(2-Chloro-5-(2-hydroxypropan-2-yl)-8-oxothieno[2′,3′:4,5]pyrrolo[1,2-d][1,2,4]triazin-7(8H)-yl)-N-(pyrimidin-4-yl)acetamide]: the IC50 in assay [1] is 7.9 nM; in assay [2], more than 100000 nM.
